From paper PMC7932537, “Quantitative profiling of protease specificity” (PLoS Computational Biology, 2021)

Columns and labels:
MMP-2 = biological target: T1, MMP-2 (Homo sapiens, UniProt P08253); assay: K(obs) of individual phage substrates (set of 1369); type: biochemical; details: MMP2
T1 sequence (P08253 110-660): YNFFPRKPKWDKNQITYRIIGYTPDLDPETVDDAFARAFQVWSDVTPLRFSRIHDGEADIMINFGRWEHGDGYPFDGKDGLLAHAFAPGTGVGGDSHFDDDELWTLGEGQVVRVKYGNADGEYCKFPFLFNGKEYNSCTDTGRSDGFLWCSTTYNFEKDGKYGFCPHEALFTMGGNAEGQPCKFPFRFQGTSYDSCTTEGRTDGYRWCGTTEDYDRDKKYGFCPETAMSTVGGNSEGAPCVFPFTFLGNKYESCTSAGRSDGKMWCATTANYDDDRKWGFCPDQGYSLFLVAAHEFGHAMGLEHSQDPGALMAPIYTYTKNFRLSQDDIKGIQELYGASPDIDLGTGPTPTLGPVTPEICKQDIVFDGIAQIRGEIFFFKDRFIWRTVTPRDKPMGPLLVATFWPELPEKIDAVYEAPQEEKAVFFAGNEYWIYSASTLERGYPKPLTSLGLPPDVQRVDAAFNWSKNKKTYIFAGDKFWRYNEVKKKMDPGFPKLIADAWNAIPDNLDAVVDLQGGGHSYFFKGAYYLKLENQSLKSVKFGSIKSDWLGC

MMP-9 = MMP-9 (Homo sapiens, UniProt P14780); assay: as above; type: biochemical; details: MMP9, individual phage substrates, set of 1369 peptides
MMP-9, sequence (P14780 94-707): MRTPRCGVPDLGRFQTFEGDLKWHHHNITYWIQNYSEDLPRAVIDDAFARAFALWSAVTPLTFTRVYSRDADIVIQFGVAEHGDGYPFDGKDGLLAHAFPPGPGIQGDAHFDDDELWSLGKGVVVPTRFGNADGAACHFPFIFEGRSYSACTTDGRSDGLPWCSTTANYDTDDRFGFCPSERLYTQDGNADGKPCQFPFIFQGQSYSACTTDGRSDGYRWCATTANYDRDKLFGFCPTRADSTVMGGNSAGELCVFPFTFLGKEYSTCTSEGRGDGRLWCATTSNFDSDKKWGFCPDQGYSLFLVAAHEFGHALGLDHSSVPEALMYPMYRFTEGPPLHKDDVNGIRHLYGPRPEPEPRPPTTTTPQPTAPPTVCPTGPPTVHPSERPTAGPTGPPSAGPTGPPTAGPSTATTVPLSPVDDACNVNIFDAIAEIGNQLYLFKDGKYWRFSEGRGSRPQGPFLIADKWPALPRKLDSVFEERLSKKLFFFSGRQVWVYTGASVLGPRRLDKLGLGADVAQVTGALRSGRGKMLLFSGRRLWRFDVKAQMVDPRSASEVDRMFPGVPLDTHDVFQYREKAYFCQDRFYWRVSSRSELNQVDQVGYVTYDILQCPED

[1] = individual phage substrates, set of 1369 peptides, cleavage position marked by '-' in the sequence
[2] = '-' marks the cleavage position (P1-P1')
[3] = individual phage substrate from the set of 1369 peptides, cleavage position marked by the dash in the sequence
[4] = dash in sequence marks cleavage position

| Substance | Kobs (MMP-2; [1]) [M⁻¹ s⁻¹] | Kobs (MMP-9; [2]) [M⁻¹ s⁻¹] | Kobs (MMP-2; [3]) [M⁻¹ s⁻¹] | Kobs (MMP-9; [4]) [M⁻¹ s⁻¹] |
| --- | --- | --- | --- | --- |
| GSPVQ-LTTAS | 1816.46 | 1327.88 |  |  |
| GSPVW-LRTAS | 12792.1 | 9740.44 |  |  |
| GTIAH-LHTAS | 10866.7 | 0 |  |  |
| GTIAY-LNTAS | 1870.4 | 0 |  |  |
| GTIDL-LTTAS | 0 | 201.585 |  |  |
| GTIFR-LTASG | 551.253 | 619.843 |  |  |
| GTLAQ-ISTAS |  |  | 0 | 517.582 |
| GTLLD-LITAS | 0 | 0 |  |  |
| GTMMS-LMTAS | 1763.55 | 0 |  |  |
| GTPLG-QITAS | 12792.1 | 5461.43 |  |  |
| GTPSK-LYTAS |  |  | 6131.32 | 2038.8 |
| GTVRH-LSTAS | 6396.07 | 1925.41 |  |  |
| GTVWA-LTTAS | 292.668 | 2218.08 |  |  |
| GVAGA-LYTAS | 2097.28 | 0 |  |  |
| GVAKP-LWTAS | 484.315 | 2280.5 |  |  |
| GVGHN-LRTAS | 142.481 | 231.616 |  |  |
| GVINQ-LRTAS |  |  | 517.582 | 355.093 |
| GVLFH-LSTAS | 0 | 0 |  |  |
| GVLGH-LSTAS | 3438.54 | 0 |  |  |
| GVLHS-LRTAS | 0 | 0 |  |  |
| GVLMR-LNTAS | 0 | 0 |  |  |
| GVMMQ-LVTAS | 0 | 0 |  |  |
| GVPFM-ILTAS |  |  | 484.315 | 4922.1 |
| GVPLN-VKTAS | 5090.5 | 12792.1 |  |  |
| GVPQW-IHTAS | 4335.13 | 5889.62 |  |  |
| GVPSW-LSTAS | 12792.1 | 12792.1 |  |  |
| GVSAR-LVTAS |  |  | 142.481 | 0 |

| Substance | Kobs (MMP-2; [1]) [M⁻¹ s⁻¹] | Kobs (MMP-9; [2]) [M⁻¹ s⁻¹] | Kobs (MMP-2; [3]) [M⁻¹ s⁻¹] | Kobs (MMP-9; [4]) [M⁻¹ s⁻¹] |
| --- | --- | --- | --- | --- |
| GVVHS-FCTAS | 0 | 0 |  |  |
| GWGDR-LTTAS |  |  | 1154.21 | 292.668 |
| GWMHE-LKTAS | 0 | 0 |  |  |
| GWVGH-LSTAS |  |  | 10866.7 | 386.839 |
| GYGLH-LRTAS | 201.585 | 261.974 |  |  |
| GYYGE-LLTAS | 990.764 | 27.918 |  |  |
| HGPMS-LTASG | 10866.7 | 10866.7 |  |  |
| HHPAA-LTASG | 12792.1 | 12792.1 |  |  |
| HLFQW-LTASG |  |  | 7015.91 | 0 |
| HLPTA-LTASG | 12792.1 | 8941.32 |  |  |
| HLVAW-LTASG | 10866.7 | 10866.7 |  |  |
| HRPFG-LTASG | 12792.1 | 12792.1 |  |  |
| HVLQN-LTASG | 12792.1 | 201.585 |  |  |
| HWPRF-LTASG |  |  | 10866.7 | 10866.7 |
| HYPSS-LTASG | 12792.1 | 12792.1 |  |  |
| IEYLN-YTASG | 231.616 | 355.093 |  |  |
| IFINF-LTASG | 10866.7 | 323.705 |  |  |
| IGYAW-MTASG | 5090.5 | 201.585 |  |  |
| IMMAY-LTASG | 12792.1 | 113.394 |  |  |
| IQLAW-LTASG | 12792.1 | 5090.5 |  |  |
| ISPAT-LTASG | 12792.1 | 12792.1 |  |  |
| ISPML-LTASG | 1196.62 | 12792.1 |  |  |
| IVNAR-LTASG | 2038.8 | 56.119 |  |  |
| KAALP-LTASG | 2916.17 | 3964.21 |  |  |
| KAPLK-LTASG |  |  | 12792.1 | 12792.1 |
| KMPRW-ITASG |  |  | 6131.32 | 9740.44 |
| KPVSA-LTASG |  |  | 12792.1 | 551.253 |

| Substance | Kobs (MMP-2; [1]) [M⁻¹ s⁻¹] | Kobs (MMP-9; [2]) [M⁻¹ s⁻¹] | Kobs (MMP-2; [3]) [M⁻¹ s⁻¹] | Kobs (MMP-9; [4]) [M⁻¹ s⁻¹] |
| --- | --- | --- | --- | --- |
| KRAAS-LTASG | 12792.1 | 1283.43 |  |  |
| KSPAY-LTASG |  |  | 10866.7 | 10866.7 |
| KSPRM-LTASG |  |  | 12792.1 | 12792.1 |
| KVLAS-LTASG |  |  | 10866.7 | 0 |
| KWPER-LTASG |  |  | 2038.8 | 1925.41 |
| LGWSS-LTASG |  |  | 3344.37 | 0 |
| LPALN-MTASG | 1513.13 | 4335.13 |  |  |
| LPTRW-LTASG | 7815.03 | 4082.43 |  |  |
| LQPLT-ITASG | 5090.5 | 12792.1 |  |  |
| LVVAA-LTASG | 12792.1 | 12792.1 |  |  |
| MAYQS-LTASG | 8941.32 | 726.013 |  |  |
| MDLLS-LTASG |  |  | 1327.88 | 0 |
| MFHLN-ITASG | 1373.05 | 690.17 |  |  |
| MKPVN-LTASG | 12792.1 | 12792.1 |  |  |
| MVPHM-LTASG | 12792.1 | 12792.1 |  |  |
| MVPSA-LTASG | 7015.91 | 8941.32 |  |  |
| MVVRH-LTASG |  |  | 12792.1 | 12792.1 |
| NDLAH-ITASG |  |  | 10866.7 | 0 |
| NFGRP-LTASG | 912.511 | 726.013 |  |  |
| NFPMS-LTASG | 12792.1 | 12792.1 |  |  |
| NKTAW-LTASG | 7386.83 | 799.117 |  |  |
| NRIGN-FTASG | 7815.03 | 0 |  |  |
| NRPSA-LTASG | 12792.1 | 12792.1 |  |  |
| NSHMA-LTASG |  |  | 517.582 | 619.843 |
| NSPQL-LTASG |  |  | 6396.07 | 2097.28 |
